Assay results from patent US20100119528A1, “Transport of Biologically Active Molecules into a Cell, Mitochondrion, or Nucleus” (priority 2008, published 2010).

Test system: mitochondria
Experiment: Peptide-mediated delivery of cargo into cells/mitochondria (fluorescence microscopy)
Format: cell-based
Method: Cells, indicated above, were grown in 8-well culture slides. Peptide/protein complexes were formed in a volume of 100 μl in OptiMEM and incubated for 30 min at 37° C. Approximately 10,000 Cells grown to 75% confluence were overlaid with these preformed complexes. After 30 min of incubation at 37° C., 500 μl of fresh DMEM supplemented with 10% FBS was added to the cells and incubated for an additional 30 min. Cells were then washed with PBS followed by fixing with 4% paraformaldehyde in PBS. Cells were then mounted with flourescent-FragEL Mounting media (Calbiochem) containing DAPI nuclear stain before microscopic analysis. See, e.g., FIGS. 1, 2, 3, and 11.

Substance: AAVALLPAVLLALLAPMSVLTPLLLRGLTGSARRLPVPRAKIHSL (AAVALLPAVLLALLAPMSVLTPLLLRGLTGSARRLPVPRAKIHSL) [SEQ ID NO:19]
- delivery of Alexa-IgG into mitochondria (FIG. 1, 10 picomol Alexa-tagged IgG, SEQ ID NO:19 from 0 to 2000 pm, orange = red plus green stain): Alexa-IgG complex has entered the mitochondria
- delivery of FITC-tagged oligonucleotide (FIG. 2, green = mitochondria stained by FITC complex, blue = DAPI nucleus): demonstrates delivery of FITC-tagged oligonucleotide
- delivery of double-stranded circular plasmid (~5.5 kb) into the mitochondria (FIG. 3, DNA stain, small blue dots = mitochondria): delivery of a double-stranded circular plasmid (˜5.5 kb) into the mitochondria
